Assay results from US20100041089A1, “IMPROVED METHOD FOR DETECTING CHEMICAL […]” (priority 2006, published 2010).

Tested on: yeast genes (expressed mRNA)
Assay: DNA chip measurement of expressed mRNA of yeast genes after culture with a toxic chemical substance
Type: cell-based, Saccharomyces cerevisiae S288C
Conditions: for level of expressed mRNA in the presence of chemical substance / level in the absence of chemical substance: cultured two hours with the chemical substance; for The level of expressed mRNA in the presence of chemical substance/The level of expressed mRNA in the absence of chemical substance: cultured two hours with substance
Procedure, shortened: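 Expression is given as treated/untreated fluorescence ratio on a whole-genome yeast DNA chip, a ratio of two or more being significant. Log-phase S288C cultures in YPD at 25 °C received the chemical for 2 h at a dose that slows growth without killing. mRNA was reverse-transcribed with Cy3- or Cy5-dUTP.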

Structure (SMILES): [Cl][Cd][Cl] [(2), CdCl2]
- level of expressed mRNA in the presence of chemical substance / level in the absence of chemical substance (yeast gene YNL058C): 1.0
- level of expressed mRNA in the presence of chemical substance / level in the absence of chemical substance (yeast gene YNL063W): 1.9
- The level of expressed mRNA in the presence of chemical substance/The level of expressed mRNA in the absence of chemical substance (yeast gene YNL074C): 1.3
- The level of expressed mRNA in the presence of chemical substance/The level of expressed mRNA in the absence of chemical substance (yeast gene YNL092W): 1.4
- The level of expressed mRNA in the presence of chemical substance/The level of expressed mRNA in the absence of chemical substance (yeast gene YNL115C): 1.8
- The level of expressed mRNA in the presence of chemical substance/The level of expressed mRNA in the absence of chemical substance (yeast gene YNL156C): 1.2
- level of expressed mRNA in the presence of chemical substance / level in the absence of chemical substance (yeast gene YNL176C): 1.3
- level of expressed mRNA in the presence of chemical substance / level in the absence of chemical substance (yeast gene YNL194C): 0.7
- level of expressed mRNA in the presence of chemical substance / level in the absence of chemical substance (yeast gene YNL200C): 3.0
- The level of expressed mRNA in the presence of chemical substance/The level of expressed mRNA in the absence of chemical substance (yeast gene YNL234W): 1.1
- level of expressed mRNA in the presence of chemical substance / level in the absence of chemical substance (yeast gene YNL253W): 1.3
- level of expressed mRNA in the presence of chemical substance / level in the absence of chemical substance (yeast gene YNL276C): 13.1
- The level of expressed mRNA in the presence of chemical substance/The level of expressed mRNA in the absence of chemical substance (yeast gene YNL281W): 1.3
- The level of expressed mRNA in the presence of chemical substance/The level of expressed mRNA in the absence of chemical substance (yeast gene YNL305C): 2.2
- level of expressed mRNA in the presence of chemical substance / level in the absence of chemical substance (yeast gene YNR051C): 0.5
- The level of expressed mRNA in the presence of chemical substance/The level of expressed mRNA in the absence of chemical substance (yeast gene YNR068C): 1.5
- level of expressed mRNA in the presence of chemical substance / level in the absence of chemical substance (yeast gene YOL026C): 2.7
- The level of expressed mRNA in the presence of chemical substance/The level of expressed mRNA in the absence of chemical substance (yeast gene YOL032W): 0.8
- The level of expressed mRNA in the presence of chemical substance/The level of expressed mRNA in the absence of chemical substance (yeast gene YOL036W): 0.9
- The level of expressed mRNA in the presence of chemical substance/The level of expressed mRNA in the absence of chemical substance (yeast gene YOL047C): 1.1
- The level of expressed mRNA in the presence of chemical substance/The level of expressed mRNA in the absence of chemical substance (yeast gene YOL071W): 2.0
- The level of expressed mRNA in the presence of chemical substance/The level of expressed mRNA in the absence of chemical substance (yeast gene YOL082W): 1.6
- The level of expressed mRNA in the presence of chemical substance/The level of expressed mRNA in the absence of chemical substance (yeast gene YOL083W): 2.3
- The level of expressed mRNA in the presence of chemical substance/The level of expressed mRNA in the absence of chemical substance (yeast gene YOL117W): 1.1
- The level of expressed mRNA in the presence of chemical substance/The level of expressed mRNA in the absence of chemical substance (yeast gene YOL131W): 1.5
- The level of expressed mRNA in the presence of chemical substance/The level of expressed mRNA in the absence of chemical substance (yeast gene YOL150C): 3.7
- The level of expressed mRNA in the presence of chemical substance/The level of expressed mRNA in the absence of chemical substance (yeast gene YOL162W): 6.9
- The level of expressed mRNA in the presence of chemical substance/The level of expressed mRNA in the absence of chemical substance (yeast gene YOR019W): 1.2
- level of expressed mRNA in the presence of chemical substance / level in the absence of chemical substance (yeast gene YOR022C): 1.1
- level of expressed mRNA in the presence of chemical substance / level in the absence of chemical substance (yeast gene YOR087W): 1.0
- level of expressed mRNA in the presence of chemical substance / level in the absence of chemical substance (yeast gene YOR138C): 1.5
- The level of expressed mRNA in the presence of chemical substance/The level of expressed mRNA in the absence of chemical substance (yeast gene YOR197W): 1.0
- level of expressed mRNA in the presence of chemical substance / level in the absence of chemical substance (yeast gene YOR253W): 2.8
- level of expressed mRNA in the presence of chemical substance / level in the absence of chemical substance (yeast gene YOR267C): 0.7
- level of expressed mRNA in the presence of chemical substance / level in the absence of chemical substance (yeast gene YOR325W): 2.6
- level of expressed mRNA in the presence of chemical substance / level in the absence of chemical substance (yeast gene YPL005W): 1.0
- The level of expressed mRNA in the presence of chemical substance/The level of expressed mRNA in the absence of chemical substance (yeast gene YPL087W): 5.1
- level of expressed mRNA in the presence of chemical substance / level in the absence of chemical substance (yeast gene YPL150W): 0.9
- level of expressed mRNA in the presence of chemical substance / level in the absence of chemical substance (yeast gene YPL152W): 1.1
- level of expressed mRNA in the presence of chemical substance / level in the absence of chemical substance (yeast gene YPL168W): 1.5
- level of expressed mRNA in the presence of chemical substance / level in the absence of chemical substance (yeast gene YPL180W): 2.0
- level of expressed mRNA in the presence of chemical substance / level in the absence of chemical substance (yeast gene YPL188W): 1.2
- The level of expressed mRNA in the presence of chemical substance/The level of expressed mRNA in the absence of chemical substance (yeast gene YPL196W): 1.6
- The level of expressed mRNA in the presence of chemical substance/The level of expressed mRNA in the absence of chemical substance (yeast gene YPL206C): 2.9
- level of expressed mRNA in the presence of chemical substance / level in the absence of chemical substance (yeast gene YPL221W): 3.0
- The level of expressed mRNA in the presence of chemical substance/The level of expressed mRNA in the absence of chemical substance (yeast gene YPL222W): 3.5
- level of expressed mRNA in the presence of chemical substance / level in the absence of chemical substance (yeast gene YPL225W): 1.7
- The level of expressed mRNA in the presence of chemical substance/The level of expressed mRNA in the absence of chemical substance (yeast gene YPR023C): 1.4
- level of expressed mRNA in the presence of chemical substance / level in the absence of chemical substance (yeast gene YPR049C): 2.5
- level of expressed mRNA in the presence of chemical substance / level in the absence of chemical substance (yeast gene YPR146C): 1.6
- level of expressed mRNA in the presence of chemical substance / level in the absence of chemical substance (yeast gene YPR148C): 1.2
- The level of expressed mRNA in the presence of chemical substance/The level of expressed mRNA in the absence of chemical substance (yeast gene YPR151C): 2.0
- level of expressed mRNA in the presence of chemical substance / level in the absence of chemical substance (yeast gene YPR172W): 1.6
